Read-outs that look alike come from different tables or passages of the source.
Experiments:
[1] = system: human P-glycoprotein HEK cells (HEK-P-gp); assay: H3K27me3 immunocytochemistry assay in P-gp expressing HEK293T cells, with or without elacridar; type: cell-based; conditions: Homo sapiens, 4 days compound treatment
In short: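 HEK293T stably expressing human ABCB1 (vinblastine-selected), 1000 cells/well, treated with serially diluted compound for 4 days at 37° C, with or without 250 nM elacridar. Fixed cells stained with anti-H3K27me3 plus Alexa 488 secondary and Hoechst; imaged at 10×, nuclei identified by Hoechst.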

[2] = target: EZH2/PRC2 complex (Homo sapiens, UniProt O75530); assay: Histone methyltransferase assay (radioisotope-based HotSpot); type: biochemical; conditions: EZH2/PRC2 complex 10 nM, core histone substrate 0.05 mg/ml, 3H-SAM 1 μM; read-out: IC50, inhibitory effects on the HMT enzyme
Description: Effect of compounds of the present disclosure on EZH2/PRC2 complex methyltransferase functional activity was measured using the radioisotope-based HotSpot assay described by Horiuchi, K. Y., et al. Assay Drug Dev Technol. 11(4):227-36 (2013). Briefly, compounds were prepared in a 10-point 3-fold serial dilution in DMSO from a 10 mM stock in ECHO qualified plate using Assist Plus (Integra Biosciences) liquid handler. […] Nanoliter quantities of each compound's concentration series were transferred into the enzyme/substrate mix using (Echo 550, LabCyte Inc. Sunnyvale, Calif.) acoustic dispenser and pre-incubated for 20 min at room temperature. The methylation reaction was initiated by the addition of 1 μl of 5 μM S-Adenosyl-L-[methyl-^3H]methionine (^3H-SAM) and incubated at 30° C. for 1 h. The final concentration of the EZH2/PRC2 complex, core histone substrate and ^3H-SAM were 10 nM, 0.05 mg/ml, and 1 μM respectively. The % activity of test samples were calculated with reference to positive (no compound) and negative (no EZH2/PRC2) controls on the plate using Excel (Microsoft). The resulting values were exported to Prism (GraphPad software) to generate concentration response curves and IC50 values using the four-parameter logistic equation.

[3] = HEK293, 96 h, without elacridar, read-out: IC50, inhibitory activity on human P-glycoprotein HEK cells (HEK-P-gp)
[4] = HEK293, with 250 nM elacridar, read-out: IC50, inhibitory activity on human P-glycoprotein HEK cells (HEK-P-gp) pretreated with elacridar

EZH2/PRC2 complex, sequence (O75530 whole entry): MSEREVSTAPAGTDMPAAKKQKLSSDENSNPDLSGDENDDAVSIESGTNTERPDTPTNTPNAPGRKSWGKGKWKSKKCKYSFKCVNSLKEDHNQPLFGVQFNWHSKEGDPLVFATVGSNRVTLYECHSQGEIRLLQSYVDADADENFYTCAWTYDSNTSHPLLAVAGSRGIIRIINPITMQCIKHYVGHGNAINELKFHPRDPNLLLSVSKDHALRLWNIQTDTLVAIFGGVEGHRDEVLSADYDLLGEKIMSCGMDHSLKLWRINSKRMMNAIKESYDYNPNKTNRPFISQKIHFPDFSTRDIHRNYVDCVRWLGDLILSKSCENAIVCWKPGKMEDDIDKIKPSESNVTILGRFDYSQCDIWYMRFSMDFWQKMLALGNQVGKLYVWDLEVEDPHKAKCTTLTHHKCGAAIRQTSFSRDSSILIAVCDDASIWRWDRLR
EZH2/PRC2 complex, sequence (Q15910 whole entry partner): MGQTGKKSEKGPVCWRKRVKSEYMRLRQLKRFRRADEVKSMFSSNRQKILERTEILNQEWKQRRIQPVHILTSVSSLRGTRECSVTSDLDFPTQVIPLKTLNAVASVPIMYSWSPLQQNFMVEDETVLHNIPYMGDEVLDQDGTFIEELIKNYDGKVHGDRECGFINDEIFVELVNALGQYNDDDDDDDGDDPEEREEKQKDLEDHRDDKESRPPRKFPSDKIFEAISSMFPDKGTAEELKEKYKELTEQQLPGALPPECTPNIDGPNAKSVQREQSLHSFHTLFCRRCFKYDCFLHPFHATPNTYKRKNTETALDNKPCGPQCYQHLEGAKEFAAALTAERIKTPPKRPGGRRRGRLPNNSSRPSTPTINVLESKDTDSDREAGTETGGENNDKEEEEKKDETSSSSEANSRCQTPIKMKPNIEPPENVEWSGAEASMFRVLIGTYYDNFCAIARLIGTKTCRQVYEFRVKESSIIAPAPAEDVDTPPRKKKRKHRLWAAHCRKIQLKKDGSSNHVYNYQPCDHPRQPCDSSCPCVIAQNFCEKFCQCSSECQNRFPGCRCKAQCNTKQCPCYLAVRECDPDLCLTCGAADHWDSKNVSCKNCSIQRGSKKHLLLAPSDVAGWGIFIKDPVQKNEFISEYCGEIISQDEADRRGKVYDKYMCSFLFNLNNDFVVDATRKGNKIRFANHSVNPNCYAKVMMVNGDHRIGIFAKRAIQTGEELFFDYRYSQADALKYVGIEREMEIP
EZH2/PRC2 complex, sequence (Q15022 whole entry partner): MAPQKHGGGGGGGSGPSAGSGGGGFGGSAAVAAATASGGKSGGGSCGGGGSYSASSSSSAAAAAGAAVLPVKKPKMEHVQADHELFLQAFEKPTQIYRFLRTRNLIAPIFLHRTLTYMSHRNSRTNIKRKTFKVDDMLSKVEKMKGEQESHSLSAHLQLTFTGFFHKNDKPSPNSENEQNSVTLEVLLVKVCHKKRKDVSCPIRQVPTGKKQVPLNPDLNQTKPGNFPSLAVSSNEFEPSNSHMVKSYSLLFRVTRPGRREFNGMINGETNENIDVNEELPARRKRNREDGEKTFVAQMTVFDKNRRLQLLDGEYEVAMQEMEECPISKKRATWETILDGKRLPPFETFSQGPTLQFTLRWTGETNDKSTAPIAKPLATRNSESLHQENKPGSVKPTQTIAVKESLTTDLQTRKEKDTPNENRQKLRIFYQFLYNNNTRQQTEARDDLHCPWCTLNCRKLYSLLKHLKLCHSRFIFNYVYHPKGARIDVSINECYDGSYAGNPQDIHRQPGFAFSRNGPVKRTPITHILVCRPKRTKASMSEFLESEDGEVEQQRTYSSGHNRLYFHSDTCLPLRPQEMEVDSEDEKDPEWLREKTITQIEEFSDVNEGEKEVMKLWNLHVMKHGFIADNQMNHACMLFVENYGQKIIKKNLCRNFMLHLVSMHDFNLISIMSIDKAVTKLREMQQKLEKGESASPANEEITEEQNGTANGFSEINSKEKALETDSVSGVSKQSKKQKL

Structure (SMILES) | IC50 [1, 3] [nM] | IC50 [1, 4] [nM] | IC50 [2] [nM]
Cn1nccc1-c1cc2c(n3cnnc13)NCc1c(F)ccc3c1C(CO3)CO2 (stereo not drawn) [Example 17] | < 25 | < 25 | < 25
COc1ncc(-c2cc3c(n4cnnc24)NCc2c(F)ccc4c2[C@H](CO4)CO3)cn1 [Example 30] | 50 to 100 | 25 to 50 | < 25
CS(=O)(=O)c1ccc(-c2cc3c(n4cnnc24)NCc2c(F)ccc4c2C(CO4)CO3)cc1 (stereo not drawn) [Example 36] | < 25 | < 25 | < 25
CN(CC(F)(F)F)C(=O)c1cc2c(n3cnnc13)NCc1c(F)ccc3c1C(CO3)CO2 (stereo not drawn) [Example 38] | 50 to 100 | 100 to 500 | < 25
Cc1cc(C#N)ccc1-c1cc2c(n3cnnc13)NCc1c(F)ccc3c1[C@H](CO3)CO2 [Example 49] | 25 to 50 | < 25 | < 25
Cn1nc(C(F)(F)F)cc1-c1cc2c(n3cnnc13)NCc1c(F)ccc3c1[C@H](CO3)CO2 [Example 115] | 25 to 50 | < 25 | < 25
